How the values were obtained:
[1] = target: Fibroblast growth factor receptor 3 (Homo sapiens, UniProt P22607)
[2] = target: Calcium/calmodulin-dependent protein kinase type II subunit beta (Homo sapiens, UniProt Q13554)
[3] = target: Calcium/calmodulin-dependent protein kinase type II subunit alpha (Homo sapiens, UniProt Q9UQM7)
[4] = target: Mitogen-activated protein kinase kinase kinase kinase 5 (Homo sapiens, UniProt Q9Y4K4)
[5] = target: T1, Mitogen-activated protein kinase kinase kinase 5 (Homo sapiens, UniProt Q99683)
T1 sequence (Q99683 whole entry): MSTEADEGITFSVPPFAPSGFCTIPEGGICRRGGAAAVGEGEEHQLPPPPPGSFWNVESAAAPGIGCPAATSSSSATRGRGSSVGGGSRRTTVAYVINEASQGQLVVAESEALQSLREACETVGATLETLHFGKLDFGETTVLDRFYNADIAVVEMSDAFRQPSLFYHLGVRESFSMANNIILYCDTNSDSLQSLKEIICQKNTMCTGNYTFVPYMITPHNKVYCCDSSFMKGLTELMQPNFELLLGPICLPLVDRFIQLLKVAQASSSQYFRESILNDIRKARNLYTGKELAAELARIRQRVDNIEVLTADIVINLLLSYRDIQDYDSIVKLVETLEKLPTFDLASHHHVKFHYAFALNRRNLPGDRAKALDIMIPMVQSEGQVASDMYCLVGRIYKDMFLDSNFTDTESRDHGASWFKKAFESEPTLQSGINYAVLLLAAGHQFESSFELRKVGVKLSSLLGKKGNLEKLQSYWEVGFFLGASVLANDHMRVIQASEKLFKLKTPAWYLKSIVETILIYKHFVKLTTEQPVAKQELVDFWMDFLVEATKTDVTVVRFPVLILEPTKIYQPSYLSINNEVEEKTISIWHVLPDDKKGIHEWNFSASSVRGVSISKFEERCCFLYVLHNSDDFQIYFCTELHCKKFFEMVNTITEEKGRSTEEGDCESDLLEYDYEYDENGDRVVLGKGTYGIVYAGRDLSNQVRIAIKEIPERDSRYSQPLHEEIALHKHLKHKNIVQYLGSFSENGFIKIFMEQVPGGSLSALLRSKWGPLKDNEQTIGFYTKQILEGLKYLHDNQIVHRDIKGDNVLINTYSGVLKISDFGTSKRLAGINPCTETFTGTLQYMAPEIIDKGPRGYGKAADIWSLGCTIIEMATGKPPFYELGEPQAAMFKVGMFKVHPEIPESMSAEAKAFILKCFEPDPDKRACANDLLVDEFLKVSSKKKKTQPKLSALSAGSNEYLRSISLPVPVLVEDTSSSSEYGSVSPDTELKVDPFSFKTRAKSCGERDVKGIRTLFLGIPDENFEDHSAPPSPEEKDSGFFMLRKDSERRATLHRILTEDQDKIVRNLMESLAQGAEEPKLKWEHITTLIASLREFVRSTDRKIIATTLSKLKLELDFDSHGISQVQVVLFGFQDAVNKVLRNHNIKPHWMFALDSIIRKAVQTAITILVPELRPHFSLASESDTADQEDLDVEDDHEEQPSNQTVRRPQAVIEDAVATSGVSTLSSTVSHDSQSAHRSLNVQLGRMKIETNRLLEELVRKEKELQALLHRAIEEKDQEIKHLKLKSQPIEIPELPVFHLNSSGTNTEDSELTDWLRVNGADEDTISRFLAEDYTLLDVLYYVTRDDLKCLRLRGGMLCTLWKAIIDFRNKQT

[6] = target: Dual specificity protein kinase CLK3 (Homo sapiens, UniProt P49761)
[7] = target: T2, Serine/threonine-protein kinase Nek2 (Homo sapiens, UniProt P51955)
T2 sequence (P51955 whole entry): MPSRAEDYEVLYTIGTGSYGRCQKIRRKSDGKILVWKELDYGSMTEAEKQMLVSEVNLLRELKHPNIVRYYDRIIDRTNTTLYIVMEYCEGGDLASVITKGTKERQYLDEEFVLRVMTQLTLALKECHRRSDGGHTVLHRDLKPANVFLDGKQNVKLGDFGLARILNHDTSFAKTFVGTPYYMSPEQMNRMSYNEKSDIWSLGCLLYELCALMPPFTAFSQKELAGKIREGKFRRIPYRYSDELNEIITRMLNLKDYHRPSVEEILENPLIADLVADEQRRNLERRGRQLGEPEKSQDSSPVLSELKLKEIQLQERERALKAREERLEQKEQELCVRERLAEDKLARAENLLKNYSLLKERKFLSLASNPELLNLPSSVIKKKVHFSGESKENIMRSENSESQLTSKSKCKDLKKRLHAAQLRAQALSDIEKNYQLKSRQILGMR

[8] = target: Vascular endothelial growth factor receptor 2 (Homo sapiens, UniProt P35968)
[9] = target: Calcium/calmodulin-dependent protein kinase type II subunit delta (Homo sapiens, UniProt Q13557)
[10] = target: Serine/threonine-protein kinase PAK 6 (Homo sapiens, UniProt Q9NQU5)
[11] = target: Mast/stem cell growth factor receptor Kit (Homo sapiens, UniProt P10721)
[12] = target: T3, Serine/threonine-protein kinase 17A (Homo sapiens, UniProt Q9UEE5)
T3 sequence (Q9UEE5 whole entry): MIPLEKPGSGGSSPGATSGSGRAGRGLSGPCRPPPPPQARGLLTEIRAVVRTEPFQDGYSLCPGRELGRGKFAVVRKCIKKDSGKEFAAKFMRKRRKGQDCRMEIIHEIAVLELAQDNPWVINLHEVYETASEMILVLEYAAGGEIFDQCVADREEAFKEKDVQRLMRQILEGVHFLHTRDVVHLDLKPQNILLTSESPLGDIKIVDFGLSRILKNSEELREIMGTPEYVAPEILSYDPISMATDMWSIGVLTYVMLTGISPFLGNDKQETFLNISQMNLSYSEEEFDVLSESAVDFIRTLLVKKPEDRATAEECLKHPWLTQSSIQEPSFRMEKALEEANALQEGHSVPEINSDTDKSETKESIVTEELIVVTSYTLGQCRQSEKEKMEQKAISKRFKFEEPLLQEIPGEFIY

[13] = target: Receptor tyrosine-protein kinase erbB-2 (Homo sapiens, UniProt P04626)
[14] = target: Proto-oncogene tyrosine-protein kinase Src (Homo sapiens, UniProt P12931)

Sequence of Calcium/calmodulin-dependent protein kinase type II subunit alpha (Q9UQM7 whole entry): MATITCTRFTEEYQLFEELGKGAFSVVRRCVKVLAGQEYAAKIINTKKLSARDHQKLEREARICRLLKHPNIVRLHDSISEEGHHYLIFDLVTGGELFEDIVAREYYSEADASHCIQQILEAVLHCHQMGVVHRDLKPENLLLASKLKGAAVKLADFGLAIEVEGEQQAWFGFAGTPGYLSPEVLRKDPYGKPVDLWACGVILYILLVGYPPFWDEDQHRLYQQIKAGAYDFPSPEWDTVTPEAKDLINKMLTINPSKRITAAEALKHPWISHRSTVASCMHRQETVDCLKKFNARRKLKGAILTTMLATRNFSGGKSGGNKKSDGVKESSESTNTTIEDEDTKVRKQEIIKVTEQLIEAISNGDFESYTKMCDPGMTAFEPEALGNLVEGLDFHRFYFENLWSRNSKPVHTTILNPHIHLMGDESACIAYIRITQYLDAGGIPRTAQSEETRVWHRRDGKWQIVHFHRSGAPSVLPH
Sequence of Fibroblast growth factor receptor 3 (P22607 whole entry): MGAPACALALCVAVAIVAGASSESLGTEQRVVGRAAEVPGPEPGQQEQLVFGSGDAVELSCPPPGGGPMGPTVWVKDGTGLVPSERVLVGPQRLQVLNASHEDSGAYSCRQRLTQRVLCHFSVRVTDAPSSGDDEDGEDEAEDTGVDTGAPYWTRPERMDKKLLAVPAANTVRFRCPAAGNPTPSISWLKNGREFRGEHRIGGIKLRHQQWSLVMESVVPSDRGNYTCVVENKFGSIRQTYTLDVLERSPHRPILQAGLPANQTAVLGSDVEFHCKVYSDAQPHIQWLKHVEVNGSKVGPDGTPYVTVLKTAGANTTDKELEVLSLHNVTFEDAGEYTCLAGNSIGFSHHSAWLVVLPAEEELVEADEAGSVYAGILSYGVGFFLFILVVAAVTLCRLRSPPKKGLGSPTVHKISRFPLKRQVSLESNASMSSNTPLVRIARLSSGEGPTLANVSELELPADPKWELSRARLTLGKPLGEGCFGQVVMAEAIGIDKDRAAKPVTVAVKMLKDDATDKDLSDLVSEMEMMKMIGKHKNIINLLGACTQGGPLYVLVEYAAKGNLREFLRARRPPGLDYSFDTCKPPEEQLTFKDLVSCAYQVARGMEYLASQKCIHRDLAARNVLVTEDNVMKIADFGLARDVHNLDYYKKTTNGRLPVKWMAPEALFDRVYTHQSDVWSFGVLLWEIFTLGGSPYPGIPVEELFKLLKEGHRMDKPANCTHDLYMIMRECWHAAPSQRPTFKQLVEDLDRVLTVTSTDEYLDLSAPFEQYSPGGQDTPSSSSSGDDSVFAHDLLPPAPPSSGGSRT
Sequence of Mitogen-activated protein kinase kinase kinase kinase 5 (Q9Y4K4 whole entry): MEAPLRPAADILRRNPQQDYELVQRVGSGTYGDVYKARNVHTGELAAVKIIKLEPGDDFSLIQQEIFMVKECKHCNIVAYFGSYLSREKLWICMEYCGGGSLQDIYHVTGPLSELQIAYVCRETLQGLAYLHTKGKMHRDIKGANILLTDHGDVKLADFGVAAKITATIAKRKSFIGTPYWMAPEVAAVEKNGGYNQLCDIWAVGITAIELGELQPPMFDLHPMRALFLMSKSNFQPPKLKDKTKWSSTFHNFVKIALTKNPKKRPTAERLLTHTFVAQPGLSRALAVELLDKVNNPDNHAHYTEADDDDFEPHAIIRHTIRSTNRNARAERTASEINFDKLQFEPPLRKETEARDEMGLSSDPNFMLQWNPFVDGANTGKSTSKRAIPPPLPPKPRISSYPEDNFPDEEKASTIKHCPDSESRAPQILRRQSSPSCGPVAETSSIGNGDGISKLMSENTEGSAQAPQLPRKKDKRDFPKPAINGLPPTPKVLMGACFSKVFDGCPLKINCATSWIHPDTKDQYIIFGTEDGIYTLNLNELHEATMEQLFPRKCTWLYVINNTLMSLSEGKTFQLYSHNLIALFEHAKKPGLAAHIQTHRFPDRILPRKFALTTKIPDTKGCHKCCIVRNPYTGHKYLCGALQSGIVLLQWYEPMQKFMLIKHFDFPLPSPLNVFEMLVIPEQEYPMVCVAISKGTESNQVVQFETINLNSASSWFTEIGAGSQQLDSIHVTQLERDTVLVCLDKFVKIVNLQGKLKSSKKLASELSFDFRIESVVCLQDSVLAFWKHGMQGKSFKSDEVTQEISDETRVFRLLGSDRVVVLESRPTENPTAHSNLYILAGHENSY
Sequence of Calcium/calmodulin-dependent protein kinase type II subunit delta (Q13557 whole entry): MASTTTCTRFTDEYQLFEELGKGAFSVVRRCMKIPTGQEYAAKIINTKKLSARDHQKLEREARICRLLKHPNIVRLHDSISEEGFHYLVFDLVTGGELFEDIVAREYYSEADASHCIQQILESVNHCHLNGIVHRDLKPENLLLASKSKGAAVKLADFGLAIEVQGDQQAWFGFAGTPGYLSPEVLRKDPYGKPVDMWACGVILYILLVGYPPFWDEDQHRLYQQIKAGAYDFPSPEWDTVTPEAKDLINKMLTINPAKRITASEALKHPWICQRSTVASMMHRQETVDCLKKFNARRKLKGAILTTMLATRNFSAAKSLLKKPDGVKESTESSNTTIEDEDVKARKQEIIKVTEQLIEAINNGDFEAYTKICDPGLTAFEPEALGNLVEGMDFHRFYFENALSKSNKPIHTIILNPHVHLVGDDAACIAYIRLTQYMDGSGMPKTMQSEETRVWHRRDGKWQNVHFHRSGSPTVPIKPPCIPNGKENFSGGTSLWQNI
Sequence of Serine/threonine-protein kinase PAK 6 (Q9NQU5 whole entry): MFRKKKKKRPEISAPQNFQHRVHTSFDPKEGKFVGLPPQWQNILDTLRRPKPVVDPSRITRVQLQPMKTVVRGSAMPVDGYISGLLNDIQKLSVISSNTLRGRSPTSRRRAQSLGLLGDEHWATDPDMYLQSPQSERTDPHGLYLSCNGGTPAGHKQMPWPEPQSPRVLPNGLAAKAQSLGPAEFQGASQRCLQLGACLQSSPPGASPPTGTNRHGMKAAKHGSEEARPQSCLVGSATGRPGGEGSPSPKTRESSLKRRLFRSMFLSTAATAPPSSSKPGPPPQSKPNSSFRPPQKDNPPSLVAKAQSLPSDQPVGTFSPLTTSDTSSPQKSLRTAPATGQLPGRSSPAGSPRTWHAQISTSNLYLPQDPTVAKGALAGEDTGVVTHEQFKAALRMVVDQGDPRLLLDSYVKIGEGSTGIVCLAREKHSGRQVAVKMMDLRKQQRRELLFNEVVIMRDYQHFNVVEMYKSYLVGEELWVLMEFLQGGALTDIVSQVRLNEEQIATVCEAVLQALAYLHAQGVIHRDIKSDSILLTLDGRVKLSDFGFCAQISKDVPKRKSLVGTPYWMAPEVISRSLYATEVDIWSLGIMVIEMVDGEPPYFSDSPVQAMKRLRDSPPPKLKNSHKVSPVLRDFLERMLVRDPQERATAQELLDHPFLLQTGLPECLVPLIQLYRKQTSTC
Sequence of Vascular endothelial growth factor receptor 2 (P35968 whole entry): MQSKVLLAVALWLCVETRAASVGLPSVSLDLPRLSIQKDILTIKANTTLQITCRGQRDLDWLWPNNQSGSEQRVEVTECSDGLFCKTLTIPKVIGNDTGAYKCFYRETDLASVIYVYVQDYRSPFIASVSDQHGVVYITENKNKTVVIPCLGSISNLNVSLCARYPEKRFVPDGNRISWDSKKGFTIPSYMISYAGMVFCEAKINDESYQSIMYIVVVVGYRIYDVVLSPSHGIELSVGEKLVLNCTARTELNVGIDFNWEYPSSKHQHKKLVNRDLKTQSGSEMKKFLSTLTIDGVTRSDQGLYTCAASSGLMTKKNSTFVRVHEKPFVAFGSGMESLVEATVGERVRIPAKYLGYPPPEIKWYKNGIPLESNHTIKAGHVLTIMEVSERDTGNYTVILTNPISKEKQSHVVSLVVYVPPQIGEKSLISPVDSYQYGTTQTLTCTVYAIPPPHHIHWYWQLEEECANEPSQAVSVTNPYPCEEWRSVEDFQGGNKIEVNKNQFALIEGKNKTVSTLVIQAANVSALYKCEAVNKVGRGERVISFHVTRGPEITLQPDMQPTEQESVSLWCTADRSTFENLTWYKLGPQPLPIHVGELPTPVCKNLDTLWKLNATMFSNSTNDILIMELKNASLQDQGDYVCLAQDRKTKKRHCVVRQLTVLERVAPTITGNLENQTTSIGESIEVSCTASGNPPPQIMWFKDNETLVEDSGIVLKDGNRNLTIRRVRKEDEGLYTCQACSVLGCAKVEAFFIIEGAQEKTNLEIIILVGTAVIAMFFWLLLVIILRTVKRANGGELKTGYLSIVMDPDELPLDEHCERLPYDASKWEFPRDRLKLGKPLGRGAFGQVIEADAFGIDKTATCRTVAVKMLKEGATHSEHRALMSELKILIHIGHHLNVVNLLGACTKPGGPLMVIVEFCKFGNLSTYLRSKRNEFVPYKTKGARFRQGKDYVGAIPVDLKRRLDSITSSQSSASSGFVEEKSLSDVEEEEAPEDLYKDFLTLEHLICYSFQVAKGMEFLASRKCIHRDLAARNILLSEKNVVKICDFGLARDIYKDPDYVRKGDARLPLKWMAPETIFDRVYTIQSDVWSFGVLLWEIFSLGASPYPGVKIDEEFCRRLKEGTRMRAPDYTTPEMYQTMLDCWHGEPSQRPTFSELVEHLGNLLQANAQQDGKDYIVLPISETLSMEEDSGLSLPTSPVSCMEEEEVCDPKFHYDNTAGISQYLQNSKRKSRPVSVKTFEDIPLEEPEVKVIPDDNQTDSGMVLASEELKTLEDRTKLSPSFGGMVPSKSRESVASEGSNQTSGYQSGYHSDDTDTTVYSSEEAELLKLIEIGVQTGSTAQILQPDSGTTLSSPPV

C#Cc1cccc(Nc2ncnc3cc(OCCOC)c(OCCOC)cc23)c1 [ERLOTINIB]
Kd [1]: Not Active | Kd [2]: Not Active | Kd [3]: Not Active | Kd [4]: Not Active | Kd [5]: Not Active | Kd [6]: Not Active | Kd [7]: Not Active | Kd [8]: Not Active | Kd [9]: Not Active | Kd [10]: Not Active | Kd [11]: Not Active | Kd [12]: Not Active

Cc1ccc(NC(=O)c2ccc(CN3CCN(C)CC3)cc2)cc1Nc1nccc(-c2cccnc2)n1 [IMATINIB]
Kd [1]: Not Active | Kd [13]: Not Active | Kd [2]: Not Active | Kd [3]: Not Active | Kd [4]: Not Active | Kd [5]: Not Active | Kd [7]: Not Active | Kd [8]: Not Active | Kd [9]: Not Active | Kd [10]: Not Active

O=c1ncn2nc(Sc3ccc(F)cc3F)ccc2c1-c1c(Cl)cccc1Cl [NEFLAMAPIMOD]
Kd [1]: Not Active | Kd [13]: Not Active | Kd [2]: Not Active | Kd [3]: Not Active | Kd [4]: Not Active | Kd [5]: Not Active | Kd [6]: Not Active | Kd [7]: Not Active | Kd [9]: Not Active | Kd [10]: Not Active | Kd [11]: Not Active | Kd [12]: Not Active

CCOc1cc2ncc(C#N)c(Nc3ccc(F)c(Cl)c3)c2cc1NC(=O)/C=C/CN(C)C [PELITINIB]
Kd [1]: Not Active | Kd [2]: Not Active | Kd [3]: Not Active | Kd ([14]; read-out: Kd): 120 nM | Kd [5]: Not Active | Kd [8]: Not Active | Kd [9]: Not Active | Kd [10]: Not Active | Kd [11]: Not Active

Oc1ccc(-c2nc(-c3ccc(F)cc3)c(-c3ccncc3)[nH]2)cc1 [SB-202190]
Kd [1]: Not Active | Kd [13]: Not Active | Kd [2]: Not Active | Kd [3]: Not Active | Kd [4]: Not Active | Kd [14]: Not Active | Kd [5]: Not Active | Kd [6]: Not Active | Kd [7]: Not Active | Kd [8]: Not Active | Kd [9]: Not Active | Kd [10]: Not Active | Kd [11]: Not Active | Kd [12]: Not Active

C[S+]([O-])c1ccc(-c2nc(-c3ccc(F)cc3)c(-c3ccncc3)[nH]2)cc1 (configuration not stated) [SB-203580]
Kd [1]: Not Active | Kd [13]: Not Active | Kd [2]: Not Active | Kd [3]: Not Active | Kd [4]: Not Active | Kd [14]: Not Active | Kd [5]: Not Active | Kd [6]: Not Active | Kd [7]: Not Active | Kd [8]: Not Active | Kd [9]: Not Active | Kd [10]: Not Active | Kd [11]: Not Active | Kd [12]: Not Active

CC[C@H](CO)Nc1nc(NCc2ccccc2)c2ncn(C(C)C)c2n1 [SELICICLIB]
Kd [1]: Not Active | Kd [13]: Not Active | Kd [2]: Not Active | Kd [3]: Not Active | Kd [4]: Not Active | Kd [14]: Not Active | Kd [5]: Not Active | Kd [6]: Not Active | Kd [7]: Not Active | Kd [8]: Not Active | Kd [9]: Not Active | Kd [10]: Not Active | Kd [11]: Not Active | Kd [12]: Not Active

Oc1c2ccccc2c2c3c(cccc13)N=N2 [SP-600125]
Kd [1]: Not Active | Kd [13]: Not Active | Kd [3]: Not Active | Kd [4]: Not Active | Kd [14]: Not Active | Kd [5]: Not Active | Kd [6]: Not Active | Kd [7]: Not Active | Kd [8]: Not Active | Kd [9]: Not Active | Kd [10]: Not Active | Kd [11]: Not Active

COc1cc2c(N3CCN(C(=O)Nc4ccc(OC(C)C)cc4)CC3)ncnc2cc1OCCCN1CCCCC1 [TANDUTINIB]
Kd [1]: Not Active | Kd [13]: Not Active | Kd [2]: Not Active | Kd [3]: Not Active | Kd [14]: Not Active | Kd [5]: Not Active | Kd [7]: Not Active | Kd [9]: Not Active | Kd [10]: Not Active | Kd [12]: Not Active

Source: ChEMBL document CHEMBL1144455, “A small molecule-kinase interaction map for clinical kinase inhibitors” (Nat Biotechnol, 2005)
